Measured values published in PMC13022995 (Environmental science & technology, 2025).
Where two headings read alike, the source gives them in different places.

Tests used:
p53RE-bla HCT116 cells = assay type: cell-based, human
HepG2 cells = assay type: cell-based, human
[1] = test system: hTERT-MSCs and aortic ECs (TeloHAECs) co-culture; assay type: cell-based, human
[2] = test system: liver, renal, bladder, and lung cells

| Structure (SMILES) | angiogenesis induction [1] | cytotoxicity of single compound [2] | also measured |
| --- | --- | --- | --- |
| O.O.O.O.O=S(=O)([O-])[O-].[Be+2] [beryllium sulfate tetrahydrate] |  |  | p53 activation (p53RE-bla HCT116 cells): activated p53; ROS induction (HepG2 cells; HepG2 cells): not detected |
| O.O.O.O.O=[N+]([O-])[O-].O=[N+]([O-])[O-].[Cd+2] [cadmium nitrate tetrahydrate, Cadmium nitrate tetrahydrate] | independently induce angiogenesis | cytotoxic by themselves | oxidative stress-inducing capability (HepG2 cells; among components of Mixture 1, Supporting Table 3): exhibited oxidative stress-inducing capability |
| [Cl][Pb][Cl] [lead(II) chloride, Lead(II) chloride] | induced angiogenesis | cytotoxic by themselves |  |
| [Cl][Cd][Cl] [cadmium chloride] | independently induce angiogenesis | cytotoxic by themselves |  |
| O.O.O.O.O.O.O=S(=O)([O-])[O-].[Ni+2] [nickel sulfate, nickel(II) sulfate hexahydrate] |  |  | ROS induction (HepG2 cells): not detected |
| CC(=O)[O-].CC(=O)[O-].O.O.O.[Pb+2] [lead(II) acetate trihydrate] |  | cytotoxic by themselves |  |
| CC(=O)[O-].CC(=O)[O-].O.O.[Cd+2] [cadmium acetate dihydrate, Cadmium acetate dihydrate] | independently induce angiogenesis | cytotoxic by themselves |  |
| O=[As]O[As]=O (stereo not drawn) [arsenic oxide] |  |  | ROS induction (HepG2 cells; HepG2 cells): not detected |
| O=[N+]([O-])c1ccc([As](=O)(O)O)cc1 [nitarsone, Nitarsone] | induced angiogenesis |  |  |
